Source: patent publication US20120141539A1, “METHODS FOR MODULATING TOLL-LIKE RECEPTOR MEDIATED ACTIVATION OF CELLS OF THE INNATE SYSTEM BY MODULATING XBP-1 ACTIVITY” (PRESIDENT AND FELLOWS OF HARVARD COLLEGE, priority 2009, published 2012)

Legend:
XBP-1 mRNA splicing [1] = test: XBP-1 splicing assay in J774 macrophages; type: cell-based, mouse; conditions: for effect of inhibitor on LPS-induced XBP-1 splicing: LPS stimulation
IFNβ = conditions: macrophage cell line; J. Smith et al. 2008; cited from earlier work
XBP-1 mRNA splicing [2] = test: XBP-1 splicing in primary macrophages; type: cell-based, mouse
[3] = tested on: CHOP, PDI, WSF1 expression; test: ER-stress related gene expression in primary macrophages; type: cell-based, mouse
PERK = PERK activation (phosphorylation status) in J774 macrophages; type: cell-based, mouse; conditions: J774 macrophages stimulated with the substance
Protocol: (§1) Total cell extracts were loaded on SDS-PAGE for separation and transferred to PDVF membranes. For Western blot the following antibodies were used: anti-XBP-1s (Biolegend), anti-phospho PERK, IRE1 and phospho-JNK (Cell Signaling), ATF4, HSP90, IkappaBβ and CHOP (Santa Cruz Biotechnology), anti-ATF6α and anti proIL-1β.
(§2) The ability of TLRs to activate the three branches of the ER stress response was tested. J774 macrophages were stimulated with the TLR4 and TLR2 agonists, LPS and Pam3CSK4, and IRE1α, PERK and ATF6 activation were analyzed. ATF6 activation was tested by monitoring the liberation of its cleaved fragment, and PERK and IRE1α activation by examining their phosphorylation status. […] To further examine the effects of TLR signaling on the classical. ER stress response, cells were stimulated with tunicamycin (TM), a potent pharmacologic ER-stress inducer, in the presence or absence of LPS. […] Therefore, TLRs trigger a biased ER-stress response by activating IRE1 while inhibiting the PERK and ATF6 pathways.

[4] = tested on: CHOP, BiP, Erdj4 and PDI expression; test: ER-stress target gene expression (quantitative RT-PCR) in J774 macrophages; type: cell-based, mouse; conditions: for induction of the classic ER stress downstream target genes CHOP and BiP: J774 macrophages stimulated with the substance
Protocol: (§3) Total RNA was prepared using Trizol (Invitrogen) and cDNA synthesis with High capacity cDNA Reverse transcription kit purchased from Applied Biosystems. Quantitative RT-PCR was performed employing SYBR green fluorescent reagent on a Mx3005P® QPCR System from Strategene. The relative amounts of mRNA were calculated from the values of comparative threshold cycle by using β-actin as control.
as §2

ATF6 = ATF6 activation (liberation of cleaved fragment) in J774 macrophages; type: cell-based, mouse; conditions: for activation of ATF6 (cleaved fragment): J774 macrophages stimulated with the substance
Protocol: as §1, §2

IRE1α = IRE1α activation (phosphorylation status, immunoblot) in J774 macrophages; type: cell-based, mouse; conditions: J774 macrophages stimulated with the substance
Protocol: as §1, §2

IL-6 = IL-6 production by LPS stimulated macrophages under ER stress; type: cell-based, mouse
ISG15 = ISG15 production by LPS stimulated macrophages under ER stress; type: cell-based, mouse; conditions: cells simultaneously ER-stressed with TM
Protocol: as §3
Therefore, it was determined whether augmenting this pathway through pharmacologic induction of an ER stress response would enhance the natural response to microbial products. […] Importantly, this finding was confirmed in primary WT and XBP-1Δ macrophages that were left untreated or pre-treated for 12 h with a low dose of TM and then stimulated with LPS for 3 h.

[5] = J774 macrophages, co-treatment with TM

c1ccc2c(c1)[I+]c1ccccc1-2 [DPI, diphenyleneiodonium chloride]
effect of inhibitor on LPS-induced XBP-1 splicing (XBP-1 mRNA splicing [1]): abolished

COc1cc(C(C)=O)ccc1O [apocynin]
effect of inhibitor on LPS-induced XBP-1 splicing (XBP-1 mRNA splicing [1]): abolished

C/C=C(/C)C(=O)O[C@H]1C(C)=C2[C@H]([C@@H]1OC(=O)CCCCCCC)[C@@](C)(OC(C)=O)C[C@H](OC(=O)CCC)[C@@]1(O)[C@H]2OC(=O)[C@@]1(C)O [thapsigargin]
IFNβ production upon stimulation with LPS (IFNβ): increased IFNβ production

FSL1
XBP-1 splicing in TLR2 deficient macrophages (XBP-1 mRNA splicing [2]): did not activate XBP-1 splicing

Pam3CSK4
TLR2 dampening of the ER-stress response: dependence on MyD88 ([3]; primary macrophages from MyD88 deficient mice): MyD88 dependent
activation of PERK (phosphorylation status) (PERK): neither activation of ATF6 or PERK
induction of the classic ER stress downstream target genes CHOP and BiP [4]: nor induction of the classic ER stress downstream target genes, CHOP and BiP, was observed
activation of ATF6 (cleaved fragment) (ATF6): neither activation of ATF6 or PERK
activation of IRE1α (slower migrating phosphorylated species) (IRE1α): Clear activation
XBP-1 splicing in TLR2 deficient macrophages (XBP-1 mRNA splicing [2]): did not activate XBP-1 splicing

lipopolysaccharide [LPS]
induction of classic ER-stress related genes such as CHOP or PDI ([3]; XBP-1Δ macrophages or WT macrophages): no induction
activation of PERK (phosphorylation status) (PERK): neither activation of ATF6 or PERK
expression of the XBP-1 target genes Erdj4 or PDI ([4]; J774 macrophages): did not induce
induction of the classic ER stress downstream target genes CHOP and BiP [4]: nor induction of the classic ER stress downstream target genes, CHOP and BiP, was observed
effect of co-treatment on TM induction of mRNAs including CHOP, PDI and Erdj4 [4, 5]: dramatically repressed
classic ER-stress response as measured by CHOP, BiP, Erdj4 and PDI expression ([4]; J774 macrophages, experiment with or without TM): did not induce a classic ER-stress response
splicing of XBP-1 mRNA and production of XBP-1s protein (XBP-1 mRNA splicing [1]; J774 macrophages, time after stimulation): detected as early as 3 hours
activation of ATF6 (cleaved fragment) (ATF6): neither activation of ATF6 or PERK
effect of co-treatment on proteolytic processing of ATF6α by TM (ATF6; [5]): dramatically repressed
activation of IRE1α (slower migrating phosphorylated species) (IRE1α): Clear activation
activation of XBP-1 in TLR4 mutant macrophages (XBP-1 mRNA splicing [2]; macrophages from mice carrying a mutation in the signaling domain of TLR4): did not activate XBP-1
effect on TM-induced XBP-1 splicing (XBP-1 mRNA splicing [2]; macrophages, TM plus LPS): increased
activation of XBP-1 in wild type primary macrophages (XBP-1 mRNA splicing [2]; primary macrophages from wild type (WT) mice): observed

tunicamycin [TM]
induction of PDI and WSF1 in XBP-1Δ macrophages ([3]; XBP-1Δ macrophages versus WT): reduced
activation of PERK (phosphorylation status) (PERK): induced activation of all three branches
activation of ATF6 (cleaved fragment) (ATF6): induced activation of all three branches
amount of IL-6 produced by LPS stimulated macrophages (IL-6; cells simultaneously ER-stressed with TM): dramatically and synergistically increased
IL-6 production in primary WT macrophages (IL-6; pre-treated 12 h with low dose of TM, then LPS 3 h): augmented IL-6 production
amount of ISG15 produced by LPS stimulated macrophages (ISG15): dramatically and synergistically increased
activation of IRE1α (slower migrating phosphorylated species) (IRE1α): induced activation of all three branches
